Reference: patent US11572344B2, “Cyanoaryl-aniline compounds for treatment of dermal disorders” (NFlection Therapeutics, Inc., priority 2018, dated 2023)

How the values were obtained:
[1] = target: MEK1 (Homo sapiens (Human), UniProt Q02750); assay: MEK Inhibition Assay-2 (Z′-LYTE biochemical assay); settings: Z′-LYTE assay of Example 39; read-out: IC50 against MEK1
Description: MEK1 inhibitory activity of compounds were tested using the following procedure (protocol available at thermofisher.com/content/dam/LifeTech/migration/files/drug-discovery/pdfs.par.60256.file.dat/20130430%20ssbk %20customer %20protocol %20and %20assa y %20conditions.pdf). The Z′-LYTE biochemical assay (ThermoFisher) employs a fluorescence-based, coupled-enzyme format and is based on the differential sensitivity of phosphorylated and non-phosphorylated peptides to proteolytic cleavage.
Test compounds in 100% DMSO were screened in 1% DMSO (final) in the well. For 10 point titrations, 3-fold serial dilutions are conducted from the starting concentration of 30 μM.
After the 1 hour incubation, 5 μL of a 1:1024 dilution of Development Reagent A (available from Invitrogen, catalog no. PV3295) was added.
ATP solutions were diluted to a 4× working concentration in Kinase Buffer (50 mM HEPES pH 7.5, 0.01% BRIJ-35, 10 mM MgCl2, 1 mM EGTA). ATP Km apparent was previously determined using a Z′-LYTE assay. The Development Reagent was diluted in Development Buffer (available from Invitrogen, catalog no. P3127).
Assay Protocol: 2.5 μL of 4× test compound or 100 nL of 100× Test Compound plus 2.4 μL Kinase Buffer, 5 μL of the 2× Peptide/Kinase Mixture, 2.5 μL of 4×ATP Solution were added to the plates and placed on a shake plate for 30-seconds. The kinase reaction was allowed to proceed for 60-minute at room temperature, before 5 μL of Development Reagent Solution was added, and the mixture agitated for 30-seconds on a shake plate. The mixture was incubated for 60-minute at room temperature. Fluorescence was measured using a plate reader and the data were analyzed.
This control yielded 100% cleaved peptide in the Development Reaction. The 100% Phosphorylation Control, which consisted of a synthetically phosphorylated peptide of the same sequence as the peptide substrate, was designed to allow for the calculation of percent phosphorylation. This control yielded a very low percentage of cleaved peptide in the Development Reaction. The 0% Phosphorylation and 100% Phosphorylation Controls allow for the calculation of the percent phosphorylation achieved in a specific reaction well.
The minimum emission ratio in a screen was established by the 0% Inhibition Control, which contained active kinase. This control was designed to produce a 10-50% phosphorylated peptide in the Kinase Reaction. Cascade assays may produce up to 70% phosphorylated peptide.
A known inhibitor control standard curve, 10 point titration, was run for each individual kinase on the same plate as the kinase to ensure the kinase was inhibited within an expected IC50 range previously determined.
The following controls are prepared for each concentration of Test Compound assayed. […] The expected value for a non-interfering compound should be 100%. Any value outside of 90% to 110% was flagged. […] The expected value for a non-fluorescence compound should be 0%. Any value>20% was flagged.
The data in Table A was calculated. XLfit from IDBS was used. The dose response curve was curve fit to model number 205 (sigmoidal dose-response model).
Table 3 lists the MEK1 inhibition assay results of selected compounds according to the above procedure.

[2] = Liver S9 half-life stability assay; type: in vitro ADME; settings: human, liver S9 fraction, pH 7.4; 1 μM test compound, 2 mg/mL liver protein, 1 mM NADPH; read-out: Assay 4: liver S9 half-life
Description: Compounds can be assessed for metabolic stability in human skin by assessing their rate of disappearance from human S9 skin fraction. Similarly, compounds can be assessed for metabolic stability in human liver by assessing their rate of disappearance from human S9 liver fraction. The protocol below is used to assess the difference between skin and hepatic metabolism.
The assay was carried out in 96-well microtiter plates at 37° C. Reaction mixtures (25 μL) contained a final concentration of 1 μM test compound, 2 mg/mL liver or skin protein, and 1 mM NADPH in buffer (100 mM potassium phosphate, pH 7.4 buffer with 1 mM EDTA, 3 mM MgCl2). At each of the time points (0, 15, 30, and 60 minutes), 150 μL of quench solution (100% acetonitrile with 0.1% formic acid) with internal standard was transferred to each well. Besides the zero minute controls, mixtures containing the same components except the NADPH were also prepared as the negative control. Verapamil or testosterone was included as a positive control to verify assay performance. Plates were sealed and centrifuged at 4° C. for 15 minutes at 4000 rpm. The supernatant was transferred to fresh plates for LC/MS/MS analysis.
All samples were analyzed on LC/MS/MS using an AB Sciex API 4000 instrument, coupled to a Shimadzu LC-20AD LC Pump system. Analytical samples were separated using a Waters Atlantis T3 dC18 reverse phase HPLC column (20 mm×2.1 mm) at a flow rate of 0.5 mL/min. The mobile phase consisted of 0.1% formic acid in water (solvent A) and 0.1% formic acid in 100% acetonitrile (solvent B).
The extent of metabolism was calculated as the disappearance of the test compound, compared to the 0-min control reaction incubations. Initial rates were calculated for the compound concentration and used to determine t1/2 values and subsequently, the intrinsic clearance, CLint=(0.693) (1/t1/2 (min)) (mL incubation/mg of S9 protein).
Assay 4 is the liver S9 half-life stability assay as described in Example 42. A4 indicates a half life of greater than 50 min and less than or equal to 200 min and B4 indicates a half life of less than or equal to 50 minutes.

Chain of MEK1 (Q02750 whole entry): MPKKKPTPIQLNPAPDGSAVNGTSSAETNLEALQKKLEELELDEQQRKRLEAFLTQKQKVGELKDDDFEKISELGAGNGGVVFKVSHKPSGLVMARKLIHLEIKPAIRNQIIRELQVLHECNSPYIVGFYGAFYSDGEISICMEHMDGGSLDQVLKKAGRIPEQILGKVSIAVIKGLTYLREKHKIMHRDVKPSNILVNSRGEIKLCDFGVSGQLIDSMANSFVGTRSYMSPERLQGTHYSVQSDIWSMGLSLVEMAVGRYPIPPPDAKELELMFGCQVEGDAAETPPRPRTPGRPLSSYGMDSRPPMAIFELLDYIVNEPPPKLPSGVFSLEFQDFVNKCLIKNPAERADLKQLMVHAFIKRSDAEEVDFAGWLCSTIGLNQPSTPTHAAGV

Row | Compound | IC50 [1] [nM] | half-life at 1 μM [2] [min]
1 | N#Cc1ccc(C(=O)NOCC2CC2)c(Nc2ccc(I)cc2F)c1F [Compound 1.031] | ≤ 150 | ≤ 50
2 | N#Cc1ccc(C(=O)NOCCO)c(Nc2ccc(I)cc2F)c1F [Compound 1.030, 4-cyano-3-fluoro-2-((2-fluoro-4-iodophenyl)amino)-N-(2-hydroxyethoxy) benzamide] | ≤ 150 | 50 to 200
3 | N#Cc1ccc(C(=O)NOCCO)c(Nc2ccc(I)cc2F)c1 [Compound 1.010] | ≤ 150 | 50 to 200
